Laboratory results: article PMC7501296, “Rapid and direct control of target protein levels with VHL-recruiting dTAG molecules” (Nature Communications, 2020)
“And” between values parts separate entries of the source, which are not always exact repeats. Equal values may be shown once.

Key:
Assay type in all cases: cell-based
[1] = target: T1, FKBP12^WT-Nluc (Homo sapiens, UniProt P62942); test: FKBP12WT-Nluc dual luciferase assay (293FT); conditions: 293FT FKBP12WT-Nluc, 24 h
T1 construct: expressed in transfected cells; host or cells: 293FT
T1 sequence (P62942 2-108 limits assumed): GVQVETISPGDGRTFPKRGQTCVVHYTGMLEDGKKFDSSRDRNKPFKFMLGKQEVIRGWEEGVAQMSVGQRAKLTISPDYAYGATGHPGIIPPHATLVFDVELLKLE
Procedure: (§1) Dual luciferase assays were performed using 293FT FKBP12^WT-Nluc and FKBP12^F36V-Nluc cells. In brief, cells were plated at 2000 cells per well in 20 µL of appropriate media in 384-well white culture plates (Corning), allowed to adhere overnight, and 100 nL of compounds were added using a Janus Workstation pin tool (PerkinElmer) for 24 h at 37 °C. To evaluate Fluc signal, plates were brought to room temperature, 20 µL of Dual-Glo Reagent (Promega) was added for 10 min and luminescence was measured on an Envision 2104 plate reader (PerkinElmer). Subsequently, 20 µL of Dual-Glo Stop & Glo Reagent (Promega) was added for 10 min and luminescence was again measured to capture Nluc signal. DMSO-normalized ratios of Nluc/Fluc signal was analyzed and plotted using GraphPad PRISM v8[6].

[2] = target: T2, FKBP12^F36V-Nluc (Homo sapiens, UniProt P62942, F37V); test: FKBP12F36V-Nluc dual luciferase assay (293FT); conditions: 293FT FKBP12F36V-Nluc, 24 h
T2 construct: expressed in transfected cells; host or cells: 293FT
T2 sequence (P62942 2-108 F37V limits assumed): as the sequence (P62942 2-108 limits assumed) above, with F36V counted along it
Procedure: as §1

[3] = system: PATU-8902 LACZ-FKBP12^F36V clone; test: Antiproliferation, PATU-8902 LACZ-FKBP12F36V clone, 3D-spheroid (CellTiter-Glo)
Procedure: (§2) Cell viability was assayed in 2D-adherent or ultra-low adherent 3D-spheroids using CellTiter-Glo (Promega)[6],[15]. Luminescence was measured on an Envision 2104 plate reader (PerkinElmer) and Fluostar Omega Reader (BMG Labtech) and data was analyzed using GraphPad PRISM v8. Synergy assessments were performed using CellTiter-Glo (Promega) with the following modifications to the protocol described in the ref. [34]. In brief, EWS502 cells were plated at 1000 cells per well in 50 µL of appropriate media in 384-well white culture plates (Corning) allowed to adhere overnight, and 100 nL of compounds were added using a Janus Workstation pin tool (PerkinElmer) for 72 h. Cell viability was measured by addition of 10 µL of CellTiter-glo (Promega), followed by incubation for 15 minutes at room temperature. Luminescence was measured on an Envision 2104 plate reader (PerkinElmer) and data was analyzed using GraphPad PRISM v8.

[4] = system: PATU-8902 FKBP12^F36V-KRAS^G12V; KRAS^-/- clone; test: Antiproliferation, PATU-8902 FKBP12F36V-KRASG12V; KRAS-/- clone, 3D-spheroid (CellTiter-Glo); conditions: FKBP12F36V-KRASG12V, KRAS-/-, 3D-spheroid, replicate values
Procedure: as §2

[5] = system: PATU-8902 LACZ-FKBP12^F36V clone; test: Antiproliferation, PATU-8902 LACZ-FKBP12F36V clone, 2D-monolayer (CellTiter-Glo)
Procedure: as §2

[6] = system: PATU-8902 FKBP12^F36V-KRAS^G12V; KRAS^-/- clone; test: Antiproliferation, PATU-8902 FKBP12F36V-KRASG12V; KRAS-/- clone, 2D-monolayer (CellTiter-Glo)
Procedure: as §2

[7] = log10[compound] (M) -5.30103, single replicates
[8] = log10[compound] (M) -5.80103, single replicates
[9] = log10[compound] (M) -6.30103, single replicates
[10] = log10[compound] (M) -6.80103, single replicates
[11] = log10[compound] (M) -7.30103, single replicates
[12] = log10[compound] (M) -7.80103, single replicates
[13] = log10[compound] (M) -8.30103, single replicates
[14] = log10[compound] (M) -8.80103, single replicates
[15] = log10[compound] (M) -9.30103, single replicates
[16] = log10[compound] (M) -9.80103, single replicates
[17] = log10[compound] (M) -5.69897, replicate values
[18] = log10[compound] (M) -6.19897, replicate values
[19] = log10[compound] (M) -6.69897, replicate values
[20] = log10[compound] (M) -7.19897, replicate values
[21] = log10[compound] (M) -7.69897, replicate values
[22] = log10[compound] (M) -8.19897, replicate values
[23] = log10[compound] (M) -8.69897, replicate values
[24] = log10[compound] (M) -9.19897, replicate values
[25] = log10[compound] (M) -9.69897, replicate values
[26] = log10[compound] (M) -10.199, replicate values

Structure (SMILES): CC[C@H](C(=O)N1CCCC[C@H]1C(=O)O[C@H](CCc1ccc(OC)c(OC)c1)c1ccccc1OCC(=O)NCCCCCCOc1cccc2c1C(=O)N(C1CCC(=O)N(C)C1=O)C2=O)c1cc(OC)c(OC)c(OC)c1 (stereo partly drawn) [dTAG-13-NEG]
- DMSO-normalized ratio of Nluc/Fluc signal [1, 7]: 67.0666 and 77.8998 and 91.6821 and 102.898
- DMSO-normalized ratio of Nluc/Fluc signal [1, 8]: 78.9348 and 111.471 and 83.3725 and 82.7897
- DMSO-normalized ratio of Nluc/Fluc signal [1, 9]: 92.3022 and 94.9354 and 69.2394 and 97.8278
- DMSO-normalized ratio of Nluc/Fluc signal [1, 10]: 96.006 and 100.644 and 74.9876 and 76.7216
- DMSO-normalized ratio of Nluc/Fluc signal [1, 11]: 72.8244 and 95.6646 and 99.6579 and 99.4332
- DMSO-normalized ratio of Nluc/Fluc signal [1, 12]: 97.6563 and 103.416 and 111.647 and 107.58
- DMSO-normalized ratio of Nluc/Fluc signal [1, 13]: 72.1292 and 95.3278 and 119.638 and 97.0458
- DMSO-normalized ratio of Nluc/Fluc signal [1, 14]: 78.9909 and 117.088 and 62.8565 and 76.9455
- DMSO-normalized ratio of Nluc/Fluc signal [1, 15]: 119.218 and 128.013 and 101.879 and 100.194
- DMSO-normalized ratio of Nluc/Fluc signal [1, 16]: 65.6358 and 99.3457 and 89.3391 and 80.9056
- DMSO-normalized ratio of Nluc/Fluc signal [2, 7]: 107.485 and 132.51 and 146.194 and 142.752
- DMSO-normalized ratio of Nluc/Fluc signal [2, 8]: 129.127 and 105.072 and 162.6 and 136.425
- DMSO-normalized ratio of Nluc/Fluc signal [2, 9]: 79.0888 and 120.578 and 92.5034 and 88.448
- DMSO-normalized ratio of Nluc/Fluc signal [2, 10]: 88.2422 and 88.8583 and 65.8176 and 62.4888
- DMSO-normalized ratio of Nluc/Fluc signal [2, 11]: 134.755 and 99.5368 and 72.6182 and 68.5345
- DMSO-normalized ratio of Nluc/Fluc signal [2, 12]: 97.7941 and 97.6227 and 54.6259 and 65.8847
- DMSO-normalized ratio of Nluc/Fluc signal [2, 13]: 87.9478 and 99.3529 and 98.1344 and 118.766
- DMSO-normalized ratio of Nluc/Fluc signal [2, 14]: 97.4127 and 84.7262 and 88.2477 and 92.5526
- DMSO-normalized ratio of Nluc/Fluc signal [2, 15]: 102.465 and 92.5515 and 101.177 and 79.93
- DMSO-normalized ratio of Nluc/Fluc signal [2, 16]: 77.6015 and 76.7835 and 70.5544 and 62.7116
- DMSO-normalized antiproliferation [3, 17]: 78.2662 and 80.6112 and 107.636 and 101.511
- DMSO-normalized antiproliferation [3, 18]: 115.881 and 119.912 and 109.909 and 110.138
- DMSO-normalized antiproliferation [3, 19]: 134.032 and 111.738 and 124.289 and 133.898
- DMSO-normalized antiproliferation [3, 20]: 111.46 and 97.6141 and 114.554 and 105.672
- DMSO-normalized antiproliferation [3, 21]: 122.388 and 133.597 and 106.246 and 144.762
- DMSO-normalized antiproliferation [3, 22]: 120.684 and 101.999 and 116.106 and 132.987
- DMSO-normalized antiproliferation [3, 23]: 123.405 and 123.822 and 121.356 and 113.012
- DMSO-normalized antiproliferation [3, 24]: 108.263 and 109.792 and 100.309 and 162.971
- DMSO-normalized antiproliferation [3, 25]: 109.842 and 96.251 and 145.82 and 104.761
- DMSO-normalized antiproliferation [3, 26]: 93.2647 and 77.5801 and 110.815 and 107.241
- DMSO-normalized antiproliferation ([4]; log10[compound] (M) -5.69897): 96.8823 and 98.3914 and 98.1687 and 89.6654
- DMSO-normalized antiproliferation ([4]; log10[compound] (M) -6.19897): 105.48 and 122.576 and 96.899 and 128.406
- DMSO-normalized antiproliferation ([4]; log10[compound] (M) -6.69897): 114.368 and 120.61 and 116.857 and 110.62
- DMSO-normalized antiproliferation ([4]; log10[compound] (M) -7.19897): 96.9046 and 91.4307 and 93.53 and 114.106
- DMSO-normalized antiproliferation ([4]; log10[compound] (M) -7.69897): 103.386 and 104.261 and 89.7267 and 101.721
- DMSO-normalized antiproliferation ([4]; log10[compound] (M) -8.19897): 101.449 and 95.4289 and 118.555 and 115.899
- DMSO-normalized antiproliferation ([4]; log10[compound] (M) -8.69897): 120.176 and 108.237 and 116.378 and 119.908
- DMSO-normalized antiproliferation ([4]; log10[compound] (M) -9.19897): 94.538 and 95.4846 and 105.848 and 104.818
- DMSO-normalized antiproliferation ([4]; log10[compound] (M) -9.69897): 83.4954 and 97.4225 and 109.1 and 101.059
- DMSO-normalized antiproliferation ([4]; log10[compound] (M) -10.199): 96.7821 and 78.8679 and 98.5696 and 88.8079
- DMSO-normalized antiproliferation [5, 17]: 72.8225 and 72.1303 and 101.197 and 90.2175
- DMSO-normalized antiproliferation [5, 18]: 131.635 and 91.018 and 75.6842 and 106.809
- DMSO-normalized antiproliferation [5, 19]: 122.78 and 97.8706 and 155.447 and 120.938
- DMSO-normalized antiproliferation [5, 20]: 130.888 and 102.417 and 116.74 and 117.366
- DMSO-normalized antiproliferation [5, 21]: 130.608 and 108.743 and 109.209 and 155.426
- DMSO-normalized antiproliferation [5, 22]: 126.2 and 112.564 and 135.746 and 163.91
- DMSO-normalized antiproliferation [5, 23]: 114.853 and 118.921 and 108.594 and 114.639
- DMSO-normalized antiproliferation [5, 24]: 149.935 and 111.753 and 119.231 and 88.5759
- DMSO-normalized antiproliferation [5, 25]: 130.478 and 106.921 and 102.092 and 104.28
- DMSO-normalized antiproliferation [5, 26]: 146.921 and 153.043 and 111.382 and 113.309
- DMSO-normalized antiproliferation [6, 17]: 50.9912 and 75.2013 and 73.3197 and 81.1372
- DMSO-normalized antiproliferation [6, 18]: 68.0095 and 98.7671 and 119.504 and 100.111
- DMSO-normalized antiproliferation [6, 19]: 129.938 and 93.0967 and 131.778 and 96.6262
- DMSO-normalized antiproliferation [6, 20]: 111.6 and 154.459 and 120.786 and 146.95
- DMSO-normalized antiproliferation [6, 21]: 99.1211 and 134.569 and 105.935 and 133.398
- DMSO-normalized antiproliferation [6, 22]: 121.063 and 109.153 and 96.3979 and 125.341
- DMSO-normalized antiproliferation [6, 23]: 116.243 and 134.344 and 103.587 and 114.006
- DMSO-normalized antiproliferation [6, 24]: 75.2314 and 130.564 and 98.3202 and 135.021
- DMSO-normalized antiproliferation [6, 25]: 119.764 and 98.922 and 106.747 and 99.1636
- DMSO-normalized antiproliferation [6, 26]: 97.9582 and 111.563 and 110.426 and 109.944
